Measured values reported in US10954348B2, “Biocompatible nanoparticle and use thereof” (KYUNGPOOK NATIONAL UNIVERSITY INDUSTRY-ACADEMIC COOPERATION …, priority 2016, dated 2021).
Entries after “also recorded” stand apart in the source; their conditions may differ.

How the values were obtained:
[1] = test system: Colorectal cancer mouse tumor models (CT26 tumor model); experiment: In vivo tumor growth inhibition; details: CT26 tumor mice, 200 μg doxorubicin i.v. three times at intervals of two days, over 33 days, versus PBS blank group
Method: Experiments were conducted to compare and investigate the ability of doxorubicin-conjugated dextran-based nanoparticles whether the nanoparticles could be used as a therapeutic agent capable of inhibiting tumor growth. Colorectal cancer mouse tumor models (CT26 tumor model) were used as tumor models in the experiments. 5×10^6 cells were injected into the flank of mice, and after 10 days, the tumors were visually recognized, and the mice were used for the experiments. The experiments were started by dividing the animal models into a blank group treated with PBS, a group treated with free doxorubicin (free DOX), and a group treated with doxorubicin-conjugated PEG-DNP (DOX@PEG-DNP)). The number of mice corresponding to each group was three, and each administration material was administered to the mouse tumor models via intravenous injection three times at intervals of two days. Here, the amounts of doxorubicin administered to the group treated with free doxorubicin and the group treated with doxorubicin-conjugated PEG-DNP (DOX@PEG-DNP) were 200 μg.
The size of tumors and the weight of mice in the tumor model were checked over 33 days, and the measurement results were monitored and compared. […] As time passed, there was a slight difference in body weight among the groups, but this was thought to be due to the difference of tumor size in the respective groups.

[2] = type: in vivo; details: CT26 tumor mice, 200 μg doxorubicin i.v. three times at intervals of two days, over 33 days

**Q.** Which tumor growth inhibition [1] does the source give for `COc1cccc2c1C(=O)c1c(O)c3c(c(O)c1C2=O)C[C@@](O)(C(=O)CO)C[C@@H]3O[C@H]1C[C@H](N)[C@H](O)[C@H](C)O1` [free doxorubicin, doxorubicin] here?
**A.** the tumor growth rate of only one of three mice was not inhibited; also recorded: surely inhibited the tumor growth rate compared with the blank group

**Q.** And the body weight change [2]?
**A.** the body weight was not rapidly reduced
